Experiments:
Type in all cases: in vivo
Conditions in all cases: evaluated after 13 days
[1] = tested on: Amaranthus retoflexus (AMARE); test: Post-emergence herbicide test, glasshouse, percentage damage
Method in brief: (§1)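 Spray: acetone/water (50:50) with 0.5% Tween 20, 500 g/ha unless stated; pre-emergence 1 d after sowing, post-emergence at 8 d. Glasshouse 24/16 °C, 14 h light, 65% RH, watered twice daily. Read at 13 d, % damage as 1-5 score.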

[2] = tested on: Setaria faberi (SETFA); test: as above
Method in brief: as §1

[3] = tested on: Solanum nigrum (SOLNI); test: as above
Method in brief: as §1

[4] = tested on: Lolium perenne (LOLPE); test: as above
Method in brief: as §1

[5] = tested on: Echinochloa crus-galli (ECHCG); test: as above
Method in brief: as §1

[6] = tested on: Ipomoea hederacea (IPOHE); test: as above
Method in brief: as §1

[7] = tested on: Amaranthus retoflexus (AMARE); test: Pre-emergence herbicide test, glasshouse, percentage damage
Method in brief: as §1

[8] = tested on: Setaria faberi (SETFA); test: as above
Method in brief: as §1

[9] = tested on: Solanum nigrum (SOLNI); test: as above
Method in brief: as §1

[10] = tested on: Lolium perenne (LOLPE); test: as above
Method in brief: as §1

[11] = tested on: Echinochloa crus-galli (ECHCG); test: as above
Method in brief: as §1

[12] = tested on: Ipomoea hederacea (IPOHE); test: as above
Method in brief: as §1

Compound	percentage damage caused to the plant, AMARE ([1]; 1000 g/ha)	percentage damage caused to the plant, SETFA ([2]; 1000 g/ha)	percentage damage caused to the plant, SOLNI ([3]; 1000 g/ha)	percentage damage caused to the plant, LOLPE ([4]; 1000 g/ha)	percentage damage caused to the plant, ECHCG ([5]; 1000 g/ha)	percentage damage caused to the plant, IPOHE ([6]; 1000 g/ha)	Pre-emergence Test AMARE percentage damage (five point scale) ([7]; rate 1000 g/ha)	Pre-emergence Test SETFA percentage damage (five point scale) ([8]; rate 1000 g/ha)	Pre-emergence Test SOLNI percentage damage (five point scale) ([9]; rate 1000 g/ha)	Pre-emergence Test LOLPE percentage damage (five point scale) ([10]; rate 1000 g/ha)	Pre-emergence Test ECHCG percentage damage (five point scale) ([11]; rate 1000 g/ha)	Pre-emergence Test IPOHE percentage damage (five point scale) ([12]; rate 1000 g/ha)	percentage damage caused to the plant, AMARE ([1]; 500 g/ha)	percentage damage caused to the plant, SETFA ([2]; 500 g/ha)	percentage damage caused to the plant, SOLNI ([3]; 500 g/ha)	percentage damage caused to the plant, LOLPE ([4]; 500 g/ha)	percentage damage caused to the plant, ECHCG ([5]; 500 g/ha)	percentage damage caused to the plant, IPOHE ([6]; 500 g/ha)	Pre-emergence Test AMARE percentage damage (five point scale) ([7]; rate 500 g/ha)	Pre-emergence Test SETFA percentage damage (five point scale) ([8]; rate 500 g/ha)	other results
FC(F)c1cc(-c2c(Cl)cccc2Oc2ccc(Br)cn2)on1 [Compound A119]	5 (5=81-100%)	5 (5=81-100%)	5 (5=81-100%)	5 (5=81-100%)	4 (4=61-80%)	5 (5=81-100%)	5 (5=81-100%)	5 (5=81-100%)	4 (4=61-80%)	5 (5=81-100%)	5 (5=81-100%)	4 (4=61-80%)									
Fc1cccc(Oc2cccc(Br)c2-c2cc(C(F)F)no2)n1 [Compound A98]	4 (4=61-80%)	5 (5=81-100%)	4 (4=61-80%)	3 (3=41-60%)	4 (4=61-80%)	3 (3=41-60%)	4 (4=61-80%)	5 (5=81-100%)	3 (3=41-60%)	3 (3=41-60%)	5 (5=81-100%)	1 (1=0-20%)									
N#Cc1cccc(Oc2ncc(Cl)cc2F)c1-n1cc(C(F)(F)F)cn1 [Compound A33, 3-[(5-chloro-3-fluoro-2-pyridyl)oxy]-2-[4-(trifluoromethyl)pyrazol-1-yl]benzonitrile]	5 (5=81-100%)	5 (5=81-100%)	5 (5=81-100%)	5 (5=81-100%)	5 (5=81-100%)	5 (5=81-100%)	5 (5=81-100%)	5 (5=81-100%)	5 (5=81-100%)	4 (4=61-80%)	5 (5=81-100%)	2 (2=21-40%)									
FC(F)c1cc(-c2c(Br)cccc2Oc2ccc(Br)cn2)on1 [Compound A106]	5 (5=81-100%)	5 (5=81-100%)	5 (5=81-100%)	5 (5=81-100%)	4 (4=61-80%)	4 (4=61-80%)	4 (4=61-80%)	5 (5=81-100%)	3 (3=41-60%)	5 (5=81-100%)	5 (5=81-100%)	3 (3=41-60%)									
Fc1cccc(Oc2ccc(Cl)cn2)c1-c1cc(C(F)F)no1 [Compound A9]													5 (5=81-100%)	5 (5=81-100%)	5 (5=81-100%)	5 (5=81-100%)	5 (5=81-100%)	4 (4=61-80%)	5 (5=81-100%)	5 (5=81-100%)	Pre-emergence Test SOLNI percentage damage (five point scale) ([9]; rate 500 g/ha): 5 (5=81-100%); Pre-emergence Test LOLPE percentage damage (five point scale) ([10]; rate 500 g/ha): 4 (4=61-80%); Pre-emergence Test ECHCG percentage damage (five point scale) ([11]; rate 500 g/ha): 5 (5=81-100%); Pre-emergence Test IPOHE percentage damage (five point scale) ([12]; rate 500 g/ha): 3 (3=41-60%)
Fc1cccc(Oc2cc(OC(F)(F)F)ccn2)c1-c1cc(C(F)F)no1 [Compound A62]	4 (4=61-80%)	3 (3=41-60%)	3 (3=41-60%)	2 (2=21-40%)	3 (3=41-60%)	3 (3=41-60%)	4 (4=61-80%)	1 (1=0-20%)	1 (1=0-20%)	1 (1=0-20%)	1 (1=0-20%)	1 (1=0-20%)									
Fc1cccc(Oc2cc(C(F)(F)F)ccn2)c1-c1cc(C(F)F)no1 [Compound A8]													2 (2=21-40%)	4 (4=61-80%)	5 (5=81-100%)	1 (1=0-20%)	2 (2=21-40%)	1 (1=0-20%)	5 (5=81-100%)	3 (3=41-60%)	Pre-emergence Test SOLNI percentage damage (five point scale) ([9]; rate 500 g/ha): 4 (4=61-80%); Pre-emergence Test LOLPE percentage damage (five point scale) ([10]; rate 500 g/ha): 1 (1=0-20%); Pre-emergence Test ECHCG percentage damage (five point scale) ([11]; rate 500 g/ha): 2 (2=21-40%); Pre-emergence Test IPOHE percentage damage (five point scale) ([12]; rate 500 g/ha): 1 (1=0-20%)
N#Cc1cnn(-c2ccccc2Oc2ncc(Cl)cc2F)c1 [Compound A26]	5 (5=81-100%)	5 (5=81-100%)	5 (5=81-100%)	3 (3=41-60%)	5 (5=81-100%)	3 (3=41-60%)	5 (5=81-100%)	5 (5=81-100%)	5 (5=81-100%)	5 (5=81-100%)	5 (5=81-100%)	4 (4=61-80%)									
Fc1cc(Cl)cnc1Oc1cccc(F)c1-c1cc(C(F)F)on1 [Compound A30]	5 (5=81-100%)	5 (5=81-100%)	5 (5=81-100%)	5 (5=81-100%)	5 (5=81-100%)	5 (5=81-100%)	5 (5=81-100%)	5 (5=81-100%)	5 (5=81-100%)	5 (5=81-100%)	5 (5=81-100%)	5 (5=81-100%)									
Fc1cccc(Oc2ccc(C(F)(F)F)cn2)c1-c1cc(C(F)F)no1 [Compound A6]													4 (4=61-80%)	5 (5=81-100%)	5 (5=81-100%)	4 (4=61-80%)	5 (5=81-100%)	3 (3=41-60%)	5 (5=81-100%)	5 (5=81-100%)	Pre-emergence Test SOLNI percentage damage (five point scale) ([9]; rate 500 g/ha): 5 (5=81-100%); Pre-emergence Test LOLPE percentage damage (five point scale) ([10]; rate 500 g/ha): 4 (4=61-80%); Pre-emergence Test ECHCG percentage damage (five point scale) ([11]; rate 500 g/ha): 4 (4=61-80%); Pre-emergence Test IPOHE percentage damage (five point scale) ([12]; rate 500 g/ha): 2 (2=21-40%)
